IC50 data for 23 compounds are collected here from patent US20260184693A1, “INHIBITORS OF SOLUTE CARRIER FAMILY 6A MEMBER 19 (SLC6A19) AND METHODS OF USE THEREOF” (Maze Therapeutics, Inc., priority 2022, published 2026).

A word on the IC50: it is the concentration at which inhibition is half-maximal.

Structures are written as SMILES.

This test deals with T1, human SLC6A19 (Homo sapiens, UniProt Q695T7).
T1 construct: expressed in transfected cells
T1 sequence (Q695T7 1-634): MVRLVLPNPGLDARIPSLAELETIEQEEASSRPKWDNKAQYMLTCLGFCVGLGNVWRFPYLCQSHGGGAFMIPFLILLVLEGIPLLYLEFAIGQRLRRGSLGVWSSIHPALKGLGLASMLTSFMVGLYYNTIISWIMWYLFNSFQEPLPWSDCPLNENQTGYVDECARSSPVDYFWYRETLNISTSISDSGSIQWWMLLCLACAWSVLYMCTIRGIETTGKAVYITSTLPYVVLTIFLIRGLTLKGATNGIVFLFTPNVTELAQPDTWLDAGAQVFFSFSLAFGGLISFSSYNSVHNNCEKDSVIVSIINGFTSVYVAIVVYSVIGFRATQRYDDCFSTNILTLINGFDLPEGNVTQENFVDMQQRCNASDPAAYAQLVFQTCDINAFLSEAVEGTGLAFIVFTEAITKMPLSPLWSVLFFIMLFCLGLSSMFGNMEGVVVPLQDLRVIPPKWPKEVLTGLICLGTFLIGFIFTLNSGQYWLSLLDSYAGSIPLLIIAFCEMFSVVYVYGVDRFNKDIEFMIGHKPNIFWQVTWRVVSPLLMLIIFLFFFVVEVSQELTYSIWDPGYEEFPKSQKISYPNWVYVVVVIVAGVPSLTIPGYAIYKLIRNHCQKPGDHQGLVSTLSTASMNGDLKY
T1 sequence (Q9HBJ8 15-222 partner): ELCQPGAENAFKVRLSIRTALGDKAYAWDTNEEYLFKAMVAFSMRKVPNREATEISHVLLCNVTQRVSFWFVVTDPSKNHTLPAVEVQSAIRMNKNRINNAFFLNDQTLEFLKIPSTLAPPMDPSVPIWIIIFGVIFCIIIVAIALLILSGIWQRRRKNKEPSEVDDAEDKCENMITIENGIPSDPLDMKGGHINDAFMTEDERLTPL
The experiment in a line: Example B2: 13C6,15N-isoleucine uptake, RapidFire mass spectrometry, in CHO cells with doxycycline-inducible expression of human SLC6A19 and TMEM27. It counts as cell-based. The settings on record: read-out: SLC6A19_RapidFire Uptake Assay IC50. The procedure, abridged: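 CHO cells were induced with doxycycline to express human SLC6A19 with TMEM27, then pre-incubated 20 min at 37 °C with compounds (2-fold, 10-point, duplicate). Uptake of 13C6,15N-isoleucine (2 mM solution added) over a further 20 min was measured by RapidFire mass spectrometry, using 13C-leucine as internal standard.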
As to `CN(C(=O)NCc1cc2cc(Cl)ccc2[nH]1)[C@@H]1CCCN(C(=O)N2CCC2)C1` [Compound 173, (R)-1-(1-(azetidine-1-carbonyl)piperidin-3-yl)-3-((5-chloro-1H-indol-2-yl)methyl)-1-methylurea], the IC50 amounted to 314 nM. As for `CC(=O)N1CCC[C@@H](N(C)C(=O)NCc2cc3cc(C)c(C#N)cc3[nH]2)C1` [Compound 174, (R)-1-(1-acetylpiperidin-3-yl)-3-((6-cyano-5-methyl-1H-indol-2-yl)methyl)-1-methylurea], the IC50 was determined as 2790 nM. Under `CC(=O)N1CCC[C@@H](N(C)C(=O)NCc2cc3cc(C)cc(CO)c3[nH]2)C1` [Compound 175, (R)-1-(1-acetylpiperidin-3-yl)-3-((7-(hydroxymethyl)-5-methyl-1H-indol-2-yl)methyl)-1-methylurea] stands 20900 nM; under `CC(=O)N1CCC[C@@H](N(C)C(=O)NCc2[nH]c3ccc(Cl)cc3c2Cl)C1` [Compound 176, (R)-1-(1-acetylpiperidin-3-yl)-3-((3,5-dichloro-1H-indol-2-yl)methyl)-1-methylurea], 30.7 nM; under `Cc1cc(N2CCC[C@@H](N(C)C(=O)NCc3cc4cc(Cl)ccc4[nH]3)C2)no1` [Compound 177, (R)-3-((5-chloro-1H-indol-2-yl)methyl)-1-methyl-1-(1-(5-methylisoxazol-3-yl)piperidin-3-yl)urea], 122 nM. Under `CNc1cc(Cl)cc2cc(CNC(=O)N(C)[C@@H]3CCCN(C(C)=O)C3)[nH]c12` [Compound 178, (R)-1-(1-acetylpiperidin-3-yl)-3-((5-chloro-7-(methylamino)-1H-indol-2-yl)methyl)-1-methylurea] stands 1570 nM; under `COc1cc2[nH]c(CNC(=O)N(C)[C@@H]3CCCN(C(C)=O)C3)cc2cc1C` [Compound 179, (R)-1-(1-acetylpiperidin-3-yl)-3-((6-methoxy-5-methyl-1H-indol-2-yl)methyl)-1-methylurea], 1210 nM.

For the compound `CN(C(=O)NCc1cc2cc(Cl)ccc2[nH]1)[C@@H]1CCCN(C(=O)C(C)(C)O)C1` [Compound 180, (R)-3-((5-chloro-1H-indol-2-yl)methyl)-1-(1-(2-hydroxy-2-methylpropanoyl)piperidin-3-yl)-1-methylurea], the IC50 was determined as 2790 nM. The same measure for `CN(C(=O)NCc1cc2cc(Cl)ccc2[nH]1)[C@@H]1CCCN(C(=O)N2CCCC2)C1` [Compound 181, (R)-3-((5-chloro-1H-indol-2-yl)methyl)-1-methyl-1-(1-(pyrrolidine-1-carbonyl)piperidin-3-yl)urea]: 795 nM; for `CC(=O)N1CCC[C@@H](N(C)C(=O)NCc2cc3cc(Cl)c(C#N)cc3[nH]2)C1` [Compound 182, (R)-1-(1-acetylpiperidin-3-yl)-3-((5-chloro-6-cyano-1H-indol-2-yl)methyl)-1-methylurea]: 2930 nM; for `C[C@H](O)C(=O)N1CCC[C@@H](N(C)C(=O)NCc2cc3cc(Cl)ccc3[nH]2)C1` [Compound 183, 3-((5-chloro-1H-indol-2-yl)methyl)-1-((R)-1-((S)-2-hydroxypropanoyl)piperidin-3-yl)-1-methylurea]: 852 nM. The same measure for `CC(=O)N1CCC[C@@H](N(C)C(=O)NCc2cc3[nH]ccc3cc2F)C1` [Compound 184, (R)-1-(1-acetylpiperidin-3-yl)-3-((5-fluoro-1H-indol-6-yl)methyl)-1-methylurea]: 3970 nM; for `CC(=O)N1CCC(C(=O)N2CCC[C@@H](N(C)C(=O)NCc3cc4cc(Cl)ccc4[nH]3)C2)C1` (stereo partly drawn) [Compound 185, 1-((3R)-1-(1-acetylpyrrolidine-3-carbonyl)piperidin-3-yl)-3-((5-chloro-1H-indol-2-yl)methyl)-1-methylurea]: 4400 nM. Take `C[C@@H](O)C(=O)N1CCC[C@@H](N(C)C(=O)NCc2cc3cc(Cl)ccc3[nH]2)C1` [Compound 186, 3-((5-chloro-1H-indol-2-yl)methyl)-1-((R)-1-((R)-2-hydroxypropanoyl)piperidin-3-yl)-1-methylurea]: the IC50 was 5600 nM. The same measure for `CC(=O)N1CCC[C@@H](N(C)C(=O)NCc2ccc3c(C)c[nH]c3c2)C1` [Compound 223, (R)-1-(1-acetylpiperidin-3-yl)-1-methyl-3-((3-methyl-1H-indol-6-yl)methyl)urea]: 4670 nM; for `COc1ccc2[nH]c(CNC(=O)N(C)[C@@H]3CCCN(C(C)=O)C3)cc2c1` [Compound 224, (R)-1-(1-acetylpiperidin-3-yl)-3-((5-methoxy-1H-indol-2-yl)methyl)-1-methylurea]: 1650 nM. Under `CC(=O)N1CCC[C@@H](N(C)C(=O)NCc2ccc3c(C)c(C)[nH]c3c2)C1` [Compound 225, (R)-1-(1-acetylpiperidin-3-yl)-3-((2,3-dimethyl-1H-indol-6-yl)methyl)-1-methylurea] stands 2960 nM; under `CC(=O)N1CCC[C@@H](N(C)C(=O)NCc2cc3cc(Cl)c(C)cc3[nH]2)C1` [Compound 226, (R)-1-(1-acetylpiperidin-3-yl)-3-((5-chloro-6-methyl-1H-indol-2-yl)methyl)-1-methylurea], 209 nM. For `CC(=O)N1CCC[C@@H](N(C)C(=O)NCc2cc3cc(Cl)cc(C)c3[nH]2)C1` [Compound 227, (R)-1-(1-acetylpiperidin-3-yl)-3-((5-chloro-7-methyl-1H-indol-2-yl)methyl)-1-methylurea], the IC50 is 327 nM.

As to `CC(=O)N1CCC[C@@H](N(C)C(=O)NCc2cc3cc(C#N)ccc3[nH]2)C1` [Compound 228, (R)-1-(1-acetylpiperidin-3-yl)-3-((5-cyano-1H-indol-2-yl)methyl)-1-methylurea], the IC50 was 2210 nM.

`CC(=O)N1CCC[C@@H](N(C)C(=O)NCc2[nH]c3ccc(Cl)cc3c2C)C1` [Compound 229, (R)-1-(1-acetylpiperidin-3-yl)-3-((5-chloro-3-methyl-1H-indol-2-yl)methyl)-1-methylurea]: the IC50 turned out to be 108 nM.

As for `CC(=O)N1CCC[C@@H](N(C)C(=O)NCc2cc3cc(Cl)cc(CO)c3[nH]2)C1` [Compound 230, (R)-1-(1-acetylpiperidin-3-yl)-3-((5-chloro-7-(hydroxymethyl)-1H-indol-2-yl)methyl)-1-methylurea], the IC50 came to 12800 nM. Under `CC(=O)N1CCC[C@@H](N(C)C(=O)NCc2cc3cc(Cl)cc(O)c3[nH]2)C1` [Compound 231, (R)-1-(1-acetylpiperidin-3-yl)-3-((5-chloro-7-hydroxy-1H-indol-2-yl)methyl)-1-methylurea] stands 1060 nM.
